{"source": "patent US20260191923A1", "about": "“COMPOSITIONS” (GIVAUDAN SA, priority 2022, published 2026)", "assay_type_in_all_cases": "cell-based", "key": {"[1]": {"test_system": "human gut microbiome", "test": "Short term colonic simulation (48 hours colonic fermentation): overall fermentative activity, pH and gas production", "conditions": "pre-digested products, fecal inoculum of a single human donor, triplicate; 0-6 hours; doses of Table 1", "source_text": "(§1) The test products used in these experiments included a red acerola fruit powder containing 20% vitamin C and a green acerola fruit powder containing 34% vitamin C provided by Naturex-Givaudan. Commercial synthetic ascorbic acid and a 55:45 mixture of fructose and glucose served as relevant control groups. The test products contained a fraction of digestible compounds (sugar, for e.g.) that, in vivo, are absorbed in the small intestine following conversion to small molecules by digestive enzymes. […] Stock solutions of test products and controls were prepared and exposed to conditions simulating oral, gastric, and small intestinal passage. Typically, a dialysis procedure is employed to simulate absorption of small molecules in the small intestine, but this step was omitted for these test products, as the dialysis procedure would lead to losses of compounds in acerola (polyphenols) that would reach the colon in vivo and exert an effect on the microbiome. […] Changes in ammonium production were assessed by sampling at the start of incubation and after 48 hours. Analysis of microbial community structure was performed at the start of the incubation and after 48 hours. pH was measured in each reactor at each time point as a single repetition. Gas production was measured in the headspace of the fermentation vessels as a single repetition."}, "[2]": {"test_system": "human gut microbiome", "test": "Short term colonic simulation: microbial metabolite (SCFA) production by capillary gas chromatography-FID", "conditions": "48 hours colonic fermentation; acerola 3.5 g/L, sugar control 1.75 g/L, ascorbic acid 1.67 g/L; FIG. 1", "source_text": "as §1, with “microbiome. A 48 hours colonic fermentation was performed in the presence of test compounds and relevant controls to determine the effect of the test products on the gut microbiome.” for “microbiome.”, “[…] Quantitative analysis” for “Analysis of microbial community structure was performed at the start”, “SCFA” for “incubation and after 48 hours. pH”, “done by means of capillary gas chromatography, coupled with” for “measured in each reactor at each time point as”, “flame ionization detector (FID). […]” for “single repetition. Gas production was measured in the headspace of the fermentation vessels as a single repetition.”"}, "[3]": {"test_system": "human gut microbiome", "test": "Short term colonic simulation: changes in community composition by 16S-targeted Illumina sequencing (heat map, LEfSe, beta diversity)", "conditions": "after 48 hours; ascorbic acid 1.67 g/L; comparator not stated", "source_text": "The test products used in these experiments included a red acerola fruit powder containing 20% vitamin C and a green acerola fruit powder containing 34% vitamin C provided by Naturex-Givaudan. Commercial synthetic ascorbic acid and a 55:45 mixture of fructose and glucose served as relevant control groups. The test products contained a fraction of digestible compounds (sugar, for e.g.) that, in vivo, are absorbed in the small intestine following conversion to small molecules by digestive enzymes. […] Stock solutions of test products and controls were prepared and exposed to conditions simulating oral, gastric, and small intestinal passage. […]\nSampling was performed periodically with a syringe through a rubber septum. […] Changes in ammonium production were assessed by sampling at the start of incubation and after 48 hours. […]\nThe methodology applied involves primers that span 2 hypervariable regions (V3-V4) of the 16S rRNA gene, i.e. primers 341F-785R described in Bekliz et al (Bekliz, M., Pramateftaki, P., Battin, T. J. et al. Viral diversity is linked to bacterial community composition in alpine stream biofilms. ISME COMMUN. 2, 27 (2022). https://doi.org/10.1038/s43705-022-00112-9). […] Read assembly and cleanup was largely derived from the MiSeq SOP described by the Schloss lab. […]"}}}
{"smiles": "O=C1O[C@H]([C@@H](O)CO)C(O)=C1O", "note": "[Ascorbic acid, ascorbic acid]", "values": [{"measurement": "pH shift", "setting": "[1]", "result": "failed to produce a significant shift in pH"}, {"measurement": "propionate production", "setting": "[2]", "result": "Each product, except ascorbic acid, stimulated propionate production"}, {"measurement": "strongest enrichments (LEfSe), OTUs of the genera/families", "setting": "[3]", "result": "Bacteroides, Lachnoclostridium, GCA-900066575, Anaerostipes, Agathobacter, Oscillibacter, Alistipes, Lachnospiraceae, Flavonifractor, Coprococcus and Blautia"}]}
